Test results published in publication PMC4505424, “A Novel Mechanism for Binding of Galactose-terminated Glycans by the C-type Carbohydrate Recognition Domain in Blood Dendritic Cell Antigen 2” (The Journal of Biological Chemistry, 2015).

Experiments:
[1] = molecular target: T1, BDCA-2 CRD (blood dendritic cell antigen 2) (Homo sapiens, UniProt Q8WTT0); experiment: solid-phase competition with […]-Man-BSA on immobilised CRD; assay type: binding; conditions: half-maximal inhibition, Ca2+-dependent
T1 construct: gene CLEC4C; extracellular C-type carbohydrate recognition domain; expected mass of CRD 17,100; monomer
T1 sequence (Q8WTT0 67-213): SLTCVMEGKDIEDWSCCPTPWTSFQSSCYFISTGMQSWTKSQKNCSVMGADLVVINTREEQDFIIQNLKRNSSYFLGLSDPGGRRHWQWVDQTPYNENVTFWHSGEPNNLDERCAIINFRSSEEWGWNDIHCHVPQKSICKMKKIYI

[2] = molecular target: T1, BDCA-2 CRD (blood dendritic cell antigen 2); experiment: as above; assay type: binding; conditions: half-maximal inhibition; Ca2+-dependent

| Ki [1] | Compound | KI relative to KI for α-methyl mannoside [2] | also measured |
| --- | --- | --- | --- |
| – | CC(=O)N[C@H]1[C@H](O[C@@H]2C(O)O[C@H](CO)[C@@H](O)[C@@H]2O)O[C@H](CO)[C@@H](O[C@@H]2O[C@H](CO)[C@H](O)[C@H](O)[C@H]2O)[C@@H]1O (some centres unmarked) [Galβ1–4GlcNAcβ1–2Man] | – | Ki ([1]; extended site, mannose at Ca2+): 9.2 ± 1.4 µM |
| – | CO[C@H]1O[C@H](CO)[C@@H](O)[C@H](O)[C@H]1NC(C)=O [GlcNAc (α-methyl glycoside)] | including glucose and GlcNAc, as well as L-fucose, also compete for binding | – |
| 92 ± 12 µM | CC(=O)N[C@H]1[C@H](O[C@@H]2C(O)O[C@H](CO)[C@@H](O)[C@@H]2O)O[C@H](CO)[C@@H](O)[C@@H]1O (some centres unmarked) [GlcNAcβ1–2Man] | – | – |
| – | CO[C@@H]1O[C@@H](C)[C@@H](O)[C@@H](O)[C@@H]1O [L-fucose (α-methyl glycoside)] | including glucose and GlcNAc, as well as L-fucose, also compete for binding | – |
| 0.46 ± 0.01 µM | CC(=O)N[C@H]1[C@H](O[C@H]2[C@H](O)[C@@H](NC(C)=O)C(O)O[C@@H]2CO)O[C@H](CO)[C@@H](O[C@@H]2O[C@H](CO[C@H]3O[C@H](CO)[C@@H](O)[C@H](O)[C@@H]3O[C@@H]3O[C@H](CO)[C@@H](O[C@@H]4O[C@H](CO)[C@H](O)[C@H](O)[C@H]4O)[C@H](O)[C@H]3NC(C)=O)[C@@H](O)[C@H](O[C@H]3O[C@H](CO)[C@@H](O)[C@H](O)[C@@H]3O[C@@H]3O[C@H](CO)[C@@H](O[C@@H]4O[C@H](CO)[C@H](O)[C@H](O)[C@H]4O)[C@H](O)[C@H]3NC(C)=O)[C@@H]2O)[C@@H]1O (some centres unmarked) [asialo biantennary glycan] | – | – |
| 320 ± 20 µM | CC(=O)N[C@H]1[C@H](O[C@H]2[C@H](O)[C@@H](NC(C)=O)C(O)O[C@@H]2CO)O[C@H](CO)[C@@H](O[C@@H]2O[C@H](CO[C@H]3O[C@H](CO)[C@@H](O)[C@H](O)[C@@H]3O[C@@H]3O[C@H](CO)[C@@H](O[C@@H]4O[C@H](CO[C@]5(C(=O)O)C[C@H](O)[C@@H](NC(C)=O)[C@H]([C@H](O)[C@H](O)CO)O5)[C@H](O)[C@H](O)[C@H]4O)[C@H](O)[C@H]3NC(C)=O)[C@@H](O)[C@H](O[C@H]3O[C@H](CO)[C@@H](O)[C@H](O)[C@@H]3O[C@@H]3O[C@H](CO)[C@@H](O[C@@H]4O[C@H](CO[C@]5(C(=O)O)C[C@H](O)[C@@H](NC(C)=O)[C@H]([C@H](O)[C@H](O)CO)O5)[C@H](O)[C@H](O)[C@H]4O)[C@H](O)[C@H]3NC(C)=O)[C@@H]2O)[C@@H]1O (some centres unmarked) [disialylated oligosaccharide] | – | – |
| – | CO[C@H]1O[C@H](CO)[C@H](O)[C@H](O)[C@H]1O [galactose (α-methyl glycoside)] | Comparison of mannose and galactose as competing ligands confirmed the affinity chromatography results | – |
| – | CO[C@H]1O[C@H](CO)[C@@H](O)[C@H](O)[C@H]1O [glucose (α-methyl glycoside)] | including glucose and GlcNAc, as well as L-fucose, also compete for binding | – |
